Assay results published in patent US20250313563A1, “GLYCOGEN SYNTHASE KINASE 3 INHIBITORS AND USES THEREOF” (The Broad Institute, Inc., priority 2022, published 2025).
Like-named read-outs stand apart in the source and are kept apart here.

What was measured:
[1] = molecular target: GSK3α (GST-full length GSK3α) (Homo sapiens (Human), UniProt P49840); assay: GSK3α TR-FRET kinase assay; type: biochemical
How it was run: (§1)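 Compound was preincubated 30 min with 1 nM GST-GSK3 enzyme. Reaction ran 100 min at ambient temperature in Tris pH 7.5/MgCl2 with 200 nM biotinylated pS645-glycogen synthase 631-650 peptide and ATP (4 μM GSK3α, 2 μM GSK3b, or 1 mM). The EDTA-stopped reaction was read by TR-FRET (Tb-anti-pSer641/streptavidin-d2), and IC50s were fitted.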

[2] = molecular target: GSK3b (GST-full length GSK3b) (Homo sapiens (Human), UniProt P49841); assay: GSK3b TR-FRET kinase assay; type: biochemical
How it was run: as §1

[3] = 1 nM GSK3α, 4 μM ATP, 30 minute preincubation, geometric mean, read-out: GSK3-A TR-FRET BIOCHEMICAL (TR-FRET), GMean, IC50
[4] = 1 nM GSK3b, 2 μM ATP, 30 minute preincubation, geometric mean, read-out: GSK3-B TR-FRET BIOCHEMICAL (TR-FRET), GMean, IC50
[5] = 1 nM GSK3α, 4 μM ATP, 30 minute preincubation, Table 16, read-out: GSK3-A TR-FRET BIOCHEMICAL (TR-FRET)
[6] = 1 nM GSK3b, 2 μM ATP, 30 minute preincubation, Table 16, read-out: GSK3-B TR-FRET BIOCHEMICAL (TR-FRET)
[7] = GSK3-A (TR-FRET 1 mM ATP), GMean, IC50, 1 mM ATP, geometric mean
[8] = GSK3-B (TR-FRET 1 mM ATP), GMean, IC50, 1 mM ATP, geometric mean

Chain of GSK3α (GST-full length GSK3α) (P49840 whole entry): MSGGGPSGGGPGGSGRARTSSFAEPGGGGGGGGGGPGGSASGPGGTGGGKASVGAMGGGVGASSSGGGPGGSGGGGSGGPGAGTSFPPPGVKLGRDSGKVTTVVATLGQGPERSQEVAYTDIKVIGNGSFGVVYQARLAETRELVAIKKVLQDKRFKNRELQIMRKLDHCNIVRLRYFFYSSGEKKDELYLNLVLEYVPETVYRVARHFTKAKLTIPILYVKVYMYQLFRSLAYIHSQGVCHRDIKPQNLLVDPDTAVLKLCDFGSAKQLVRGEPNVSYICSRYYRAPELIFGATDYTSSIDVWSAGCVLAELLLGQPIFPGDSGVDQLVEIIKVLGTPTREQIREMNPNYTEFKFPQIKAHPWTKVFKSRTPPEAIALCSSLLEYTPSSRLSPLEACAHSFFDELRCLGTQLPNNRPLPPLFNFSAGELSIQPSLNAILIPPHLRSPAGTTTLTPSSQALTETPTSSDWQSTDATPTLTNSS
Chain of GSK3b (GST-full length GSK3b) (P49841 whole entry): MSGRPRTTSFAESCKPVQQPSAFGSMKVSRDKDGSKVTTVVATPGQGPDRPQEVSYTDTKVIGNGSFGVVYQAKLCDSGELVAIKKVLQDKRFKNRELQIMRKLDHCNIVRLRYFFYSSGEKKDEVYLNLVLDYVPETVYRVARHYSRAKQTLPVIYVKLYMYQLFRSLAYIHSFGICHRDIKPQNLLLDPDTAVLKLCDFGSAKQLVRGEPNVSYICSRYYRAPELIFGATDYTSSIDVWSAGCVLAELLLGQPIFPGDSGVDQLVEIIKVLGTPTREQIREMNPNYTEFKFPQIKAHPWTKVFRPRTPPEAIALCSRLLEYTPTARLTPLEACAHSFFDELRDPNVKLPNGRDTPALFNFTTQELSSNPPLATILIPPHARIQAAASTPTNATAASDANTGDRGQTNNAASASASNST

Row | SMILES | IC50 [1, 3] [nM] | IC50 [2, 4] [nM] | IC50 [1, 5] [nM] | IC50 [2, 6] [nM] | also measured
1 | CCC1(c2cccc(N3CCOCC3)c2)C2=C(CC(C)(C)NC2=O)Nc2n[nH]c(C)c21 (stereo not drawn) [Compound 947564] | 100 to 1000 | 100 to 1000 |  |  | 
2 | CCC1(c2cccc(N3CCCCC3)c2)C2=C(CC(C)(C)NC2=O)Nc2n[nH]cc21 (stereo not drawn) [Compound 947566] | 1000 to 5000 | 1000 to 5000 |  |  | 
3 | CCC1(c2cccc(-c3c(C)nn(C)c3C)c2)C2=C(CC(C)(C)NC2=O)Nc2n[nH]c(C(F)(F)F)c21 (stereo not drawn) [Compound 947568] | ≤ 100 | ≤ 100 |  |  | 
4 | CCC1(c2cccc(-c3ccncc3S(C)(=O)=O)c2)C2=C(CC(C)(C)CC2=O)Nc2n[nH]cc21 (stereo not drawn) [Compound 947569] |  |  | ≤ 100 | ≤ 100 | 
5 | CC[C@]1(c2cccc(-c3c(C)nn(C)c3C)c2)C2=C(CC(C)(C)NC2=O)Nc2n[nH]c(C)c21 [Compound 947573] | 100 to 1000 | 1000 to 5000 |  |  | 
6 | CC[C@]1(c2cccc(-c3ccncc3C)c2)C2=C(CC(C)(C)NC2=O)Nc2n[nH]cc21 [Compound 947574] | ≤ 100 | ≤ 100 |  |  | 
7 | CCC1(c2cccc(-c3c(C)nn(C)c3C)c2)C2=C(CC(C)(C)NC2=O)Nc2n[nH]c(C)c21 (stereo not drawn) [Compound 947575] | ≤ 100 | ≤ 100 |  |  | 
8 | CCC1(c2cccc(-c3ccncc3C)c2)C2=C(CC(C)(C)NC2=O)Nc2n[nH]cc21 (stereo not drawn) [Compound 947576] | ≤ 100 | 1000 to 5000 |  |  | 
9 | COCc1cccc(S(=O)(=O)N2CCC3(CC2)C2=C(CC(C)(C)CC2=O)Nc2n[nH]cc23)c1 [Compound 947605] |  |  | ≤ 100 | ≤ 100 | 
10 | Cn1nc(C(F)(F)F)cc1S(=O)(=O)N1CCC2(CC1)C1=C(CC(C)(C)CC1=O)Nc1n[nH]cc12 [Compound 947606] |  |  | ≤ 100 | ≤ 100 | 
11 | CC(C)n1cc(S(=O)(=O)N2CCC3(CC2)C2=C(CC(C)(C)CC2=O)Nc2n[nH]cc23)cn1 [Compound 947607] |  |  | ≤ 100 | ≤ 100 | 
12 | Cc1cc(S(=O)(=O)N2CCC3(CC2)C2=C(CC(C)(C)CC2=O)Nc2n[nH]cc23)n(C)n1 [Compound 947608] |  |  | ≤ 100 | ≤ 100 | 
13 | CCn1nc(C)cc1S(=O)(=O)N1CCC2(CC1)C1=C(CC(C)(C)CC1=O)Nc1n[nH]cc12 [Compound 947609] |  |  | ≤ 100 | 100 to 1000 | 
14 | CC1(C)CC(=O)C2=C(C1)Nc1n[nH]cc1C21CCN(S(=O)(=O)c2cnc3ccccn23)CC1 [Compound 947610] |  |  | ≤ 100 | ≤ 100 | 
15 | Cc1ncc(S(=O)(=O)N2CCC3(CC2)C2=C(CC(C)(C)CC2=O)Nc2n[nH]cc23)o1 [Compound 947611] |  |  | ≤ 100 | ≤ 100 | IC50 [1, 7]: 100 to 1000 nM; IC50 [2, 8]: 100 to 1000 nM
16 | COc1ccc(S(=O)(=O)N2CCC3(CC2)C2=C(CC(C)(C)CC2=O)Nc2n[nH]cc23)cc1Cl [Compound 947612] |  |  | ≤ 100 | ≤ 100 | 
17 | CC1(C)CC(=O)C2=C(C1)Nc1n[nH]cc1C21CCN(S(=O)(=O)c2cccnc2)CC1 [Compound 947613] |  |  | ≤ 100 | ≤ 100 | IC50 [1, 7]: 100 to 1000 nM; IC50 [2, 8]: 1000 to 5000 nM
18 | Cc1cnc2c(S(=O)(=O)N3CCC4(CC3)C3=C(CC(C)(C)CC3=O)Nc3n[nH]cc34)cccc2c1 [Compound 947614] |  |  |  |  | IC50 ([1]; 1 nM GSK3α, 4 μM ATP, 30 minute preincubation, read-out: GSK3-A TR-FRET BIOCHEMICAL (TR-FRET), IC50): ≤ 100 nM; IC50 ([2]; 1 nM GSK3b, 2 μM ATP, 30 minute preincubation, read-out: GSK3-B TR-FRET BIOCHEMICAL (TR-FRET), IC50): ≤ 100 nM
19 | CC1(C)CC(=O)C2=C(C1)Nc1n[nH]cc1C21CCN(S(=O)(=O)c2cnn3ccccc23)CC1 [Compound 947615] |  |  | ≤ 100 | ≤ 100 | 
20 | Cc1cc(S(=O)(=O)N2CCC3(CC2)C2=C(CC(C)(C)CC2=O)Nc2n[nH]cc23)cc(C)n1 [Compound 947616] |  |  | ≤ 100 | ≤ 100 | IC50 [1, 7]: 100 to 1000 nM; IC50 [2, 8]: 1000 to 5000 nM
21 | CC[C@]1(c2cccc(-c3cc(C)nn3C)c2)C2=C(Nc3n[nH]cc31)[C@H](F)C(C)(C)CC2=O [Compound 947656] |  |  | 100 to 1000 | > 5000 | 
22 | CCC1(c2cccc(-c3c(C)cncc3C)c2)C2=C(CC(C)(C)CC2=O)Nc2n[nH]cc21 (stereo not drawn) [Compound 947658] |  |  |  |  | IC50 ([1]; read-out: GSK3-A (TR-FRET 1 mM ATP), GMean, IC50, 1 mM ATP, geometric mean): ≤ 100 nM; IC50 ([2]; read-out: GSK3-B (TR-FRET 1 mM ATP), GMean, IC50, 1 mM ATP, geometric mean): 100 to 1000 nM
23 | CC[C@]1(c2cccc(Cc3ncccc3C(F)(F)F)c2)C2=C(CC(C)(C)CC2=O)Nc2n[nH]cc21 [Compound 947665] |  |  | 1000 to 5000 | > 5000 | 
24 | CCC1(c2cccc(N3CCCCC3)c2)C2=C(CC(C)(C)NC2=O)Nc2n[nH]c(C)c21 (stereo not drawn) [Compound 947674] | ≤ 100 | 100 to 1000 |  |  | 
